Reference: publication PMC10665234, “Nutritional Supplementation and Enhanced Antioxidant Function by Dietary Intake of Selenoneine and Other Selenium Compounds in Red Seabream Pagrus major” (Marine Biotechnology (New York, N.y.), 2023)

Experiments:
Type in all cases: in vivo, red seabream Pagrus major
[1] = Total selenium concentrations in the tissues of red seabream after feeding selenium-supplemented dry pellet (fluorometric assay with 2,3-diamino-naphthalene)
Procedure: (§1) Red seabream fry (average body weight of 5.4 g) was obtained from private seed and seedling production company (Oita, Japan) and cultured for seven months up to average body weight of 250 g. Chemical composition of control diet was containing crude protein 50%; […]; Ca 2.3%; ash 16.0%; and phosphorus 1.5%. Each selenium-added diet was fed twice a day for 4 weeks in an amount of 1% of the average body weight. Body weight of fish in each tank was measured when fish were sampled and amount of diet was calculated according to the body weight of every sampling day. The added selenium concentrations in the diets were set in 0 ppm, 1 ppm, and 2 ppm selenium according to the previous study (Tohfuku et al. [2021]). After that, they were fed a commercial diet twice a day for 1 week. The test groups were the control group, the sodium selenite group (1 mg Se/kg feeding group and 2 mg Se/kg feeding group), the selenomethionine group (1 mg Se/kg feeding group and 2 mg Se/kg feeding group), and the selenoneine group (1 mg Se/kg feeding group and 2 mg Se/kg feeding group) were set. The number of fish raised was 15 from the start of rearing in each tank until the 2nd week, 10 from the 3rd to 4th week, and 5 in the 5th week. […] We reared red seabream by feeding of 1% dry pellet containing of sodium selenite, selenomethionine, or selenoneine of body weight twice a day for 4 weeks. After that, we replaced to 1% of commercial dry pellet of body weight twice a day for 1 week from the selenium supplementation. Average water temperature was 20.9 ℃ (19.0–23.9 ℃) and average dissolved oxygen was 7.41 mg/L. The body weight change of red seabream for 5 weeks is shown in Table S2.
(§2) Red seabream was anesthetized by adding 2 mL of anesthetic (1/100 volume of 2-methylquinoline dissolved in ethanol) to 1 L of seawater. A small amount of an anticoagulant (heparin sodium dissolved in physiological saline; 800 units/mL) was placed in a syringe in advance, and blood was collected from the caudal peduncle of each fish. The collected blood was centrifuged at 5000 rpm for 5 min (4 °C), divided into a plasma fraction and a precipitated fraction, and stored at − 50 °C. The precipitated fraction was used for analysis as the blood cell fraction.
Total selenium concentration was determined by fluorometric assay with 2,3-diamino-naphthalene, after digestion in 1.5 mL of nitric acid and perchloric acid (1:2 in volume) at 200–220 ℃ (Watkinson [1966]; Yamashita and Yamashita [2010]).

[2] = Selenoneine concentration in white muscle and blood cell by HPLC-ICP-MS (82Se); settings: fish cultured for 4 weeks
Procedure: as §1, §2
Selenoneine was separated by chromatography using a Shodex GF-310 column (4.5 mm × 150 mm; Showa Denko, Tokyo, Japan) equilibrated with 100 mM ammonium formate buffer containing 0.1% (w/v) Igepal CA-630 (MP Biomedicals, CA, USA). The injection volume was at 10 μL. The mobile phase delivered at 0.5 mL/min isocratically. ^82Se was detected with high performance liquid chromatography inductively coupled plasma mass spectrometry (HPLC-ICP-MS; Agilent 1100 Series and Agilent 7500 Series, Agilent Technology) (Yamashita and Yamashita [2010]). During separation, selenoneine was eluted at a retention time of 200 s, and the selenium concentration was determined using selenoneine as a standard.

red seabream = assay: Oxidation-reduction potential (ORP) in white muscle; settings: 2 weeks; 1 or 2 ppm in diet
Procedure: ORP was measured with ORP electrode (9300, Horiba, Kyoto, […]). The electrode was pierced into muscle and pressed gently until the potential stabilized for 60 s.

[3] = 5 weeks (4 weeks supplementation, then 1 week commercial diet), diet 1 mg Se/kg added
[4] = 5 weeks (4 weeks supplementation, then 1 week commercial diet), diet 2 mg Se/kg added

O=[Se]([O-])[O-].[Na+].[Na+] [Sodium selenite, reference compound]
Total selenium content, blood cell ([1]; 2 weeks, diet 1 mg Se/kg added): 2.44 ± 0.27 mg Se/kg
Total selenium content, blood cell ([1]; 2 weeks, diet 2 mg Se/kg added): 2.49 ± 0.29 mg Se/kg
Total selenium content, blood cell ([1]; 4 weeks, diet 1 mg Se/kg added): 3.11 ± 0.40 mg Se/kg
Total selenium content, blood cell ([1]; 4 weeks, diet 2 mg Se/kg added): 2.86 ± 0.17 mg Se/kg
Total selenium content, blood cell [1, 3]: 3.18 ± 0.76 mg Se/kg
Total selenium content, blood cell [1, 4]: 3.13 ± 0.48 mg Se/kg
Total selenium content, brain ([1]; 2 weeks, diet 1 mg Se/kg added): 0.49 ± 0.03 mg Se/kg
Total selenium content, brain ([1]; 2 weeks, diet 2 mg Se/kg added): 0.50 ± 0.03 mg Se/kg
Total selenium content, brain ([1]; 4 weeks, diet 1 mg Se/kg added): 0.54 ± 0.07 mg Se/kg
Total selenium content, brain ([1]; 4 weeks, diet 2 mg Se/kg added): 0.45 ± 0.10 mg Se/kg
Total selenium content, brain [1, 3]: 0.35 ± 0.09 mg Se/kg
Total selenium content, brain [1, 4]: 0.33 ± 0.11 mg Se/kg
Tissues in which total selenium was accumulated compared with the control group ([1]; diet 1 mg Se/kg and 2 mg Se/kg): white muscle, kidney, and hepatopancreas
Total selenium content, heart ([1]; 2 weeks, diet 1 mg Se/kg added): 1.05 ± 0.20 mg Se/kg
Total selenium content, heart ([1]; 2 weeks, diet 2 mg Se/kg added): 0.99 ± 0.10 mg Se/kg
Total selenium content, heart ([1]; 4 weeks, diet 1 mg Se/kg added): 1.27 ± 0.11 mg Se/kg
Total selenium content, heart ([1]; 4 weeks, diet 2 mg Se/kg added): 1.22 ± 0.08 mg Se/kg
Total selenium content, heart [1, 3]: 1.20 ± 0.09 mg Se/kg
Total selenium content, heart [1, 4]: 1.04 ± 0.07 mg Se/kg
Total selenium content, hepatopancreas ([1]; 2 weeks, diet 1 mg Se/kg added): 1.12 ± 0.16 mg Se/kg
Total selenium content, hepatopancreas ([1]; 2 weeks, diet 2 mg Se/kg added): 1.31 ± 0.15 mg Se/kg
Total selenium content, hepatopancreas ([1]; 4 weeks, diet 1 mg Se/kg added): 1.40 ± 0.19 mg Se/kg
Total selenium content, hepatopancreas ([1]; 4 weeks, diet 2 mg Se/kg added): 1.45 ± 0.13 mg Se/kg
Total selenium content, hepatopancreas [1, 3]: 1.31 ± 0.23 mg Se/kg
Total selenium content, hepatopancreas [1, 4]: 1.28 ± 0.18 mg Se/kg
Total selenium content, kidney ([1]; 2 weeks, diet 1 mg Se/kg added): 2.46 ± 0.31 mg Se/kg
Total selenium content, kidney ([1]; 2 weeks, diet 2 mg Se/kg added): 2.50 ± 0.19 mg Se/kg
Total selenium content, kidney ([1]; 4 weeks, diet 1 mg Se/kg added): 3.07 ± 0.24 mg Se/kg
Total selenium content, kidney ([1]; 4 weeks, diet 2 mg Se/kg added): 3.06 ± 0.34 mg Se/kg
Total selenium content, kidney [1, 3]: 2.60 ± 0.32 mg Se/kg
Total selenium content, kidney [1, 4]: 2.71 ± 0.39 mg Se/kg
Total selenium content, spleen ([1]; 2 weeks, diet 1 mg Se/kg added): 2.58 ± 0.16 mg Se/kg
Total selenium content, spleen ([1]; 2 weeks, diet 2 mg Se/kg added): 2.80 ± 0.25 mg Se/kg
Total selenium content, spleen ([1]; 4 weeks, diet 1 mg Se/kg added): 3.09 ± 0.47 mg Se/kg
Total selenium content, spleen ([1]; 4 weeks, diet 2 mg Se/kg added): 2.94 ± 0.22 mg Se/kg
Total selenium content, spleen [1, 3]: 2.80 ± 0.28 mg Se/kg
Total selenium content, spleen [1, 4]: 2.47 ± 0.35 mg Se/kg
Total selenium content, white muscle ([1]; 2 weeks, diet 1 mg Se/kg added): 0.39 ± 0.02 mg Se/kg
Total selenium content, white muscle ([1]; 2 weeks, diet 2 mg Se/kg added): 0.40 ± 0.02 mg Se/kg
Total selenium content, white muscle ([1]; 4 weeks, diet 1 mg Se/kg added): 0.39 ± 0.01 mg Se/kg
Total selenium content, white muscle ([1]; 4 weeks, diet 2 mg Se/kg added): 0.39 ± 0.03 mg Se/kg
Total selenium content, white muscle [1, 3]: 0.38 ± 0.06 mg Se/kg
Total selenium content, white muscle [1, 4]: 0.36 ± 0.05 mg Se/kg
Selenoneine concentration, blood cell ([2]; diet 1 mg Se/kg added): 1.98 ± 0.39 mg Se/kg
Selenoneine concentration, blood cell ([2]; diet 2 mg Se/kg added): 1.91 ± 0.43 mg Se/kg
Selenoneine concentration, white muscle ([2]; diet 1 mg Se/kg added): 0.019 ± 0.002 mg Se/kg
Selenoneine concentration, white muscle ([2]; diet 2 mg Se/kg added): 0.020 ± 0.003 mg Se/kg
ORP in white muscle compared to control (red seabream): reduced ORP

C[Se]CC[C@H](N)C(=O)O [Selenomethionine, Seleno-L-methionine]
ORP in white muscle compared to control (red seabream): reduced ORP
